This note sets out measurements from patent EP4775208A1, “USE OF PRMT5 INHIBITOR IN TREATMENT OF TUMORS OR CANCERS” (Apeiron Therapeutics (Hong Kong) Ltd., priority 2023, dated 2025).

The subject of assay [1] is HCT-116 MTAP wild-type cells. Description: Inhibition of proliferation of HCT-116 MTAP wild-type cells (Cell-Titer Glo). The format is cell-based. The settings on record: 8 days. The method, boiled down:
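MTAP wild-type HCT-116 cells were seeded, cultured overnight and then exposed to compound from 10,000 nM down in a 10-point, 3-fold series (0.1% DMSO). Plates were incubated 8 days at 37°C, 5% CO2. Proliferation was read by Cell-Titer Glo viability luminescence.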

Assay [2] concerns HCT-116 MTAP(-/-) deficient cells. Description: Inhibition of proliferation of HCT-116 MTAP(-/-) deficient cells (Cell-Titer Glo). Type of assay: cell-based. Conditions: 8 days. The method, boiled down:
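Cells in log-phase growth, RPMI-1640 with 10% FBS, seeded and left overnight at 37°C, 5% CO2. Compound tested at 0–10,000 nM (10 points, 3-fold, 0.1% DMSO) for 8 days at 37°C, 5% CO2. Viability read by CellTiter-Glo luminescence.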

Usually IC50 stands for the point on the concentration scale where inhibition reaches its midpoint. A low value points to greater potency.

Consider `Cc1ncn2c1c(N)nc1ccc(C(=O)N(C3CC3)C3COc4cc(C(F)(F)F)ccc43)cc12` (centres unmarked) [Example 69, 4-amino-N-cyclopropyl-3-methyl-N-(6-(trifluoromethyl)-2,3-dihydrobenzofuran-3-yl)i midazo[1,5-a]quinoxa line-8-carboxamide], for which the IC50 in assay [1] (Homo sapiens, HCT-116, 192 h) was 5020 nM; in assay [2] (Homo sapiens, HCT-116, 192 h), 87.1 nM.
For `Cc1ncc(-c2ccc3c(c2)OCC3N(C(=O)c2ccc3nc(N)c4cncn4c3c2)C2CC2)cn1` (centres unmarked) [Example 72, 4-amino-N-cyclopropyl-N-(6-(2-methylpyrimidin-5-yl)-2,3-dihydrobenzofuran-3-yl)imi dazo[1,5-a]quinoxaline-8-carboxamide] the same measures were > 20000 nM and 117 nM.
As to `Nc1nc2ccc(C(=O)N(C3CC3)C3COc4cc(C(F)(F)F)ccc43)cc2n2cncc12` (centres unmarked) [Example 73, 4-amino-N-cyclopropyl-N-(6-(trifluoromethyl)-2,3-dihydrobenzof uran-3-yl)imidazo[1,5-a]quinoxaline-8-carb oxamide], the half-maximal inhibitory concentration (IC50) stood at 4620 nM in assay [1] (Homo sapiens, HCT-116, 192 h) and 55.5 nM in assay [2] (Homo sapiens, HCT-116, 192 h).
`Nc1nc2ccc(C(=O)N(C3CC3)C3COc4cc(Br)ccc43)cc2n2cncc12` (centres unmarked) [Example 74, 4-amino-N-(6-bromo-2,3-dihydrobenzofuran-3-yl)-N-cyclopropyl imidazo[1,5-a]quinox aline-8-carboxamide]: the half-maximal inhibitory concentration (IC50) in assay [1] amounted to 5990 nM; in assay [2], 148 nM.
For the compound `CN(C(=O)c1ccc2nc(N)c3cncn3c2c1)[C@@H]1COc2cc(NS(=O)(=O)C(F)(F)F)ccc21` [Example 76, (S)-4-amino-N-methyl-N-(6-((trifluoromethyl)sulfonamido)-2,3-dihydrobenzofuran-3-yl)imida zo[1,5-a]quinoxaline-8-carboxamide], the 50% inhibitory concentration (IC50) was > 10000 nM in assay [1] (Homo sapiens, HCT-116, 192 h) and > 3000 nM in assay [2] (Homo sapiens, HCT-116, 192 h).
Turning to `CC1OC[C@@H](N(C)C(=O)c2ccc3nc(N)c4cncn4c3c2)c2cc(F)ccc21` (stereo partly drawn) [Example 77, 4-amino-N-((4S)-6-fluoro-1-methylisochroman-4-yl)-N-methylimidazo[1,5-a]quinoxaline-8-carboxamide], the 50% inhibitory concentration (IC50) in assay [1] (Homo sapiens, HCT-116, 192 h) amounted to 4260 nM; in assay [2] (Homo sapiens, HCT-116, 192 h) it was 101 nM.
Take `CC1OC[C@@H](N(C)C(=O)c2ccc3nc(N)c4cncn4c3c2)c2cccnc21` (stereo partly drawn) [Example 108, 4-amino-N-methyl-N-((5S)-8-methyl-5,8-di hydro-6H-pyrano[3,4-b]pyridin-5-yl)imidaz o[1,5-a]quinoxaline-8-carboxamide]: the IC50 in assay [1] (Homo sapiens, HCT-116, 192 h) is > 10000 nM; in assay [2] (Homo sapiens, HCT-116, 192 h) it was 121 nM.
`CCOC(=O)c1ncn2c1c(N)nc1ccc(C(=O)N(C)C3COc4cc(C(F)(F)F)ccc43)cc12` (centres unmarked) [Example 109, ethyl 4-amino-8-(methyl(6-(trifluoromethyl)-2,3-dihydrobenzofuran-3-yl)carbamoyl)imidazo[1,5-a]quinoxaline-3-carboxylate]: the 50% inhibitory concentration (IC50) was 9090 nM in assay [1] (Homo sapiens, HCT-116, 192 h) and > 3000 nM in assay [2] (Homo sapiens, HCT-116, 192 h).
Turning to `CN(C(=O)c1cc2c(cc1F)nc(N)c1cncn12)C1CCOc2cc(C(F)(F)F)cnc21` (centres unmarked) [Example 110, 4-amino-7-fluoro-N-methyl-N-(7-(trifluoromethyl)-3,4-dihydro-2 H-pyrano[3,2-b]pyridin-4-yl)imidazo[1,5-a] quinoxaline-8-carbox amide], the IC50 in assay [1] (Homo sapiens, HCT-116, 192 h) was > 10000 nM; in assay [2] (Homo sapiens, HCT-116, 192 h) it was > 3000 nM.
For `CN(C(=O)c1ccc2nc(N)c3cnc(Br)n3c2c1)[C@@H]1COc2cc(C(F)(F)F)ccc21` [Example 111, (S)-4-amino-1-bromo-N-methyl-N-(6-(trifluoromethyl)-2,3-dihydrobenzofuran-3-yl)imidazo[1,5-a]quinoxaline-8-carboxamide], in that order: > 10000 nM and 500 nM.
For `CN(C(=O)c1ccc2nc(N)c3cncn3c2c1)[C@@H]1COc2cc(C(F)F)ccc21` [Example 112, (S)-4-amino-N-(6-(difluoromethyl)-2,3-dihydrobenzofuran-3-yl)-N-methylimidazo[1,5-a]quinoxaline-8-carboxamide] the same measures were > 10000 nM and 338 nM.
Turning to `CN(C(=O)c1cc2c(cc1F)nc(N)c1cncn12)[C@@H]1CCOc2cc(-c3cnn(C)c3)ccc21` [Example 114, (R)-4-amino-7-fluoro-N-methyl-N-(7-(1-methyl-1H-pyrazol-4-yl)chroman-4-yl)imidazo [1,5-a]quinoxaline-8-c arboxamide], the IC50 in assay [1] (Homo sapiens, HCT-116, 192 h) was > 10000 nM; in assay [2] (Homo sapiens, HCT-116, 192 h) it was 146 nM.
For the compound `CN(C(=O)c1cc2c(cc1F)nc(N)c1cncn12)[C@@H]1CCOc2cc(-c3ccnn3C)ccc21` [Example 115, (R)-4-amino-7-fluoro-N-methyl-N-(7-(1-methyl-1H-pyrazol-5-yl)chroman-4-yl)imidazo[1,5-a]quinoxaline-8-carboxamide], the 50% inhibitory concentration (IC50) in assay [1] (Homo sapiens, HCT-116, 192 h) is > 10000 nM; in assay [2] (Homo sapiens, HCT-116, 192 h), 84.3 nM.
For `Cc1cc(-c2ccc3c(c2)OCC[C@H]3N(C)C(=O)c2cc3c(cc2F)nc(N)c2cncn23)on1` [Example 116, (R)-4-amino-7-fluoro-N-methyl-N-(7-(3-methylisoxazol-5-yl)chroman-4-yl)imidazo[1,5-a]quinoxaline-8-carb oxamide], the half-inhibitory concentration (IC50) was > 10000 nM in assay [1] (Homo sapiens, HCT-116, 192 h) and 109 nM in assay [2] (Homo sapiens, HCT-116, 192 h).
For `CN(C(=O)c1ccc2nc(N)c3cnc(C4CC4)n3c2c1)[C@@H]1COc2cc(C(F)(F)F)ccc21` [Example 118, (S)-4-amino-1-cyclopro pyl-N-methyl-N-(6-(trifluoromethyl)-2,3-dihydrobenzofuran-3-yl)imida zo[1,5-a]quinoxaline-8-carboxamide], the IC50 is > 10000 nM in assay [1] (Homo sapiens, HCT-116, 192 h) and 2930 nM in assay [2] (Homo sapiens, HCT-116, 192 h).
For `Nc1nc2cc(F)c(C(=O)N(C3CC3)C3COc4cc(N5CCOCC5)ccc43)cc2n2cncc12` (centres unmarked) [Example 121, 4-amino-N-cyclopropyl-7-fluoro-N-(6-mor pholino-2,3-dihydrobenzofuran-3-yl)imidaz o[1,5-a]quinoxaline-8-carboxamide], in that order: > 10000 nM and 73.7 nM.
For the compound `CN(C(=O)c1cc2c(cn1)nc(N)c1cncn12)C1CCc2ccccc21` (centres unmarked) [Example 125, 4-amino-N-(2,3-dihydro-1H-inden-1-yl)-N-methylimidazo[1,5-a] pyrido[3,4-e]pyrazine-8-carboxamide], the 50% inhibitory concentration (IC50) is > 10000 nM in assay [1] (Homo sapiens, HCT-116, 192 h) and 2450 nM in assay [2] (Homo sapiens, HCT-116, 192 h).
In the case of `Nc1nc2ncc(C(=O)N(C3CC3)C3COc4cc(C(F)(F)F)ccc43)cc2n2cncc12` (centres unmarked) [Example 126, 4-amino-N-cyclopropyl-N-(6-(trifluoromethyl)-2,3-dihydrobenzof uran-3-yl)imidazo[1,5-a]pyrido[2,3-e]pyrazine-8-carboxamide], the concentration for half-maximal inhibition (IC50) was > 20000 nM in assay [1] (Homo sapiens, HCT-116, 192 h) and 592 nM in assay [2] (Homo sapiens, HCT-116, 192 h).
For `CN(C(=O)c1ccc2nc(N)c3c(Br)ncn3c2c1)[C@@H]1COc2cc(C(F)(F)F)ccc21` [Example 127, (S)-4-amino-3-bromo-N-methyl-N-(6-(trifluoromethyl)-2,3-dihydrobenzofuran-3-yl)imidazo[1,5-a]quinoxaline-8-carboxamide], in that order: 9900 nM and 100 nM.
`CN(C(=O)c1ccc2nc(N)c3c(CO)ncn3c2c1)[C@@H]1COc2cc(C(F)(F)F)ccc21` [Example 128, (S)-4-amino-3-(hydroxymethyl)-N-methyl-N-(6-(trifluoromethyl)-2,3-dihydrobenzofuran-3-yl)imidazo[1,5-a]quinoxaline-8-carboxamide]: the IC50 in assay [1] (Homo sapiens, HCT-116, 192 h) was > 10000 nM; in assay [2] (Homo sapiens, HCT-116, 192 h), 26 nM.
Turning to `CN(C(=O)c1cc2c(cc1F)nc(N)c1cncn12)C1CSc2cc(C(F)(F)F)ccc21` (centres unmarked) [Example 129, 4-amino-7-fluoro-N-methyl-N-(6-(trifluoromethyl)-2,3-dihydrobenzo[b]thiophen-3-yl) imidazo[1,5-a]quinox aline-8-carboxamide], the IC50 in assay [1] (Homo sapiens, HCT-116, 192 h) stood at 2680 nM; in assay [2] (Homo sapiens, HCT-116, 192 h), 14.5 nM.
`CN(C(=O)c1ccc2nc(N)c3c(C#N)ncn3c2c1)[C@@H]1COc2cc(C(F)(F)F)ccc21` [Example 131, (S)-4-amino-3-cyano-N-methyl-N-(6-(trifluoromethyl)-2,3-dihydrobenzofuran-3-yl)imidazo[1,5-a]quinoxaline-8-carboxamide]: the IC50 in assay [1] (Homo sapiens, HCT-116, 192 h) is > 10000 nM; in assay [2] (Homo sapiens, HCT-116, 192 h), > 3000 nM.
For `CN(C(=O)c1ccc2nc(N)c3c(C(N)=O)ncn3c2c1)[C@@H]1COc2cc(C(F)(F)F)ccc21` [Example 132, (S)-4-amino-N8-methyl-N8-(6-(trifluoromethyl)-2,3-dihydrobenzofuran-3-yl)imidazo[1,5-a]quinoxaline-3,8-dicarboxamide] the same measures were > 10000 nM and > 3000 nM.
With “(R)-4-amino-7-fluoro-N-methyl-N-(7-(1-(tri fluoromethyl)-1H-pyr azol-4-yl)chroman-4-ylimidazo[1,5-a]quin oxaline-8-carboxamid e [Example 113]”, the figures for the IC50 in assay [1] and in assay [2] were > 10000 nM and 88.1 nM, respectively.
For “(R)-4-amino-N-(6-bromo-2,3-dihydrobenzofuran-3-yl)-N-cyclopropylimidazo[1,5-a]quinoxaline-8-carboxamide [Example 81]” the same measures were 2360 nM and 1790 nM.
As for “(R)-4-amino-N-(6-cya no-2,3-dihydrobenzof uran-3-yl)-N-cyclopro pylimidazo[1,5-a]quin oxaline-8-carboxamid e [Example 91]”, the results for the IC50 in assay [1] and in assay [2] were > 20000 nM and 2180 nM, respectively.
For “(R)-4-amino-N-cyclo propyl-N-(6-(trifluoro methyl)-2,3-dihydrob enzofuran-3-yl)imidaz o[1,5-a]pyrido[3,4-e]p yrazine-8-carboxamid e [Example 87]”, in that order: 10800 nM and 9030 nM.
For “(R)-4-amino-N-cyclo propyl-N-(6-(trifluoro methyl)-2,3-dihydrob enzofuran-3-yl)imidaz o[1,5-a]quinoxaline-8 -carboxamide [Example 83]”, in that order: 4700 nM and 2640 nM.
